# Assay results taken from the supplement of paper PMC11451515.
# Tested on: NOMO1
# Assay: cell viability relative to DMSO control; higher = less cytotoxic
# Conditions: 48 h
# Summary of the method: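 Leukemia cells (NOMO1 or SEM, 500 cells/well; P12-Ichikawa, 1000 cells/well) were seeded in 5 μl in 1536-well plates after at least four passages of adaptation to each medium. They received library compounds in DMSO by pin dosing, 11 threefold points from 47 μM to 0.79 nM. Luminescence with CellTiter-Glo One was read after 48 h at 37°C. Viability is stated per plate relative to DMSO wells, with cell-free wells as background.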
# [1] = HPLM + 10% dialyzed FBS, 0.000781 µM
# [2] = HPLM + 10% dialyzed FBS, 0.00234 µM
# [3] = HPLM + 10% dialyzed FBS, 0.00702 µM
# [4] = HPLM + 10% dialyzed FBS, 0.0211 µM
# [5] = HPLM + 10% dialyzed FBS, 0.0632 µM
# [6] = HPLM + 10% dialyzed FBS, 0.19 µM
# [7] = HPLM + 10% dialyzed FBS, 0.569 µM
# [8] = HPLM + 10% dialyzed FBS, 1.71 µM
# [9] = HPLM + 10% dialyzed FBS, 5.12 µM
# [10] = HPLM + 10% dialyzed FBS, 15.4 µM
# [11] = HPLM + 10% dialyzed FBS, 46.1 µM
# [12] = RPMI 5 mM glucose + 10% FBS, 0.000781 µM
# [13] = RPMI 5 mM glucose + 10% FBS, 0.00234 µM
# [14] = RPMI 5 mM glucose + 10% FBS, 0.00702 µM
# [15] = RPMI 5 mM glucose + 10% FBS, 0.0211 µM
# [16] = RPMI 5 mM glucose + 10% FBS, 0.0632 µM
# [17] = RPMI 5 mM glucose + 10% FBS, 0.19 µM
# [18] = RPMI 5 mM glucose + 10% FBS, 0.569 µM
# [19] = RPMI 5 mM glucose + 10% FBS, 1.71 µM
# [20] = RPMI 5 mM glucose + 10% FBS, 5.12 µM
# [21] = RPMI 5 mM glucose + 10% FBS, 15.4 µM
# [22] = RPMI 5 mM glucose + 10% FBS, 46.1 µM
# [23] = RPMI 5 mM glucose + 10% dialyzed FBS, 0.000781 µM
# [24] = RPMI 5 mM glucose + 10% dialyzed FBS, 0.00234 µM
# [25] = RPMI 5 mM glucose + 10% dialyzed FBS, 0.00702 µM
# [26] = RPMI 5 mM glucose + 10% dialyzed FBS, 0.0211 µM
# [27] = RPMI 5 mM glucose + 10% dialyzed FBS, 0.0632 µM
# [28] = RPMI 5 mM glucose + 10% dialyzed FBS, 0.19 µM
# [29] = RPMI 5 mM glucose + 10% dialyzed FBS, 0.569 µM
# [30] = RPMI 5 mM glucose + 10% dialyzed FBS, 1.71 µM
# [31] = RPMI 5 mM glucose + 10% dialyzed FBS, 5.12 µM
# [32] = RPMI 5 mM glucose + 10% dialyzed FBS, 15.4 µM
# [33] = RPMI 5 mM glucose + 10% dialyzed FBS, 46.1 µM
compound,measurement,setting,value
Cc1cc(O)c2c3c4c(cc(O)c13)C(C)(C)C(=O)c1c(O)cc(O)c(c1-4)C2=O,cell viability,[1],125%
same,cell viability,[2],121%
same,cell viability,[3],107%
same,cell viability,[4],115%
same,cell viability,[5],109%
same,cell viability,[6],112%
same,cell viability,[7],115%
same,cell viability,[8],99.2%
same,cell viability,[9],114%
same,cell viability,[10],101%
same,cell viability,[11],7.32%
same,cell viability,[12],106%
same,cell viability,[13],109%
same,cell viability,[14],109%
same,cell viability,[15],101%
same,cell viability,[16],88.6%
same,cell viability,[17],101%
same,cell viability,[18],90.5%
same,cell viability,[19],104%
same,cell viability,[20],101%
same,cell viability,[21],85.2%
same,cell viability,[22],26.1%
same,cell viability,[23],89.5%
same,cell viability,[24],95.2%
same,cell viability,[25],118%
same,cell viability,[26],98.9%
same,cell viability,[27],109%
same,cell viability,[28],86.5%
same,cell viability,[29],107%
same,cell viability,[30],107%
same,cell viability,[31],112%
same,cell viability,[32],114%
same,cell viability,[33],36.5%
Cl.c1cnc2cc3c(cc2n1)C1CNCC3C1,cell viability,[1],107%
same,cell viability,[2],109%
same,cell viability,[3],110%
same,cell viability,[4],103%
same,cell viability,[5],129%
same,cell viability,[6],126%
same,cell viability,[7],135%
same,cell viability,[8],124%
same,cell viability,[9],124%
same,cell viability,[10],122%
same,cell viability,[11],92%
same,cell viability,[12],101%
same,cell viability,[13],105%
same,cell viability,[14],113%
same,cell viability,[15],107%
same,cell viability,[16],112%
same,cell viability,[17],110%
same,cell viability,[18],118%
same,cell viability,[19],104%
same,cell viability,[20],111%
same,cell viability,[21],110%
same,cell viability,[22],79.4%
same,cell viability,[23],99.3%
same,cell viability,[24],98.2%
same,cell viability,[25],105%
same,cell viability,[26],114%
same,cell viability,[27],107%
same,cell viability,[28],121%
same,cell viability,[29],116%
same,cell viability,[30],109%
same,cell viability,[31],103%
same,cell viability,[32],108%
same,cell viability,[33],62.8%
CC[C@]1(O)C[C@H]2CN(CCC3=C([NH]C4=C3C=CC=C4)[C@@](C2)(C(=O)OC)C5=CC6=C(C=C5OC)N(C=O)[C@H]7[C@](O)([C@H](OC(C)=O)[C@]8(CC)\C=C/C[N@@]9CC[C@]67[C@H]89)C(=O)OC)C1,cell viability,[1],119%
same,cell viability,[2],117%
same,cell viability,[3],127%
same,cell viability,[4],110%
same,cell viability,[5],35.3%
same,cell viability,[6],34.7%
same,cell viability,[7],43.2%
same,cell viability,[8],47%
same,cell viability,[9],47.1%
same,cell viability,[10],50.9%
same,cell viability,[11],41.6%
same,cell viability,[12],120%
same,cell viability,[13],118%
same,cell viability,[14],127%
same,cell viability,[15],116%
same,cell viability,[16],38.9%
same,cell viability,[17],24.4%
same,cell viability,[18],23%
same,cell viability,[19],30.7%
same,cell viability,[20],28.6%
same,cell viability,[21],30.4%
same,cell viability,[22],25.8%
Nc1nc(-c2nn(Cc3ccccc3F)c3ncccc23)nc(N)c1N1CCOCC1,cell viability,[1],75.2%
same,cell viability,[2],103%
same,cell viability,[3],115%
same,cell viability,[4],102%
same,cell viability,[5],119%
same,cell viability,[6],122%
same,cell viability,[7],122%
same,cell viability,[8],122%
same,cell viability,[9],130%
same,cell viability,[10],112%
same,cell viability,[11],92.1%
same,cell viability,[12],88.5%
same,cell viability,[13],93.8%
same,cell viability,[14],106%
same,cell viability,[15],107%
same,cell viability,[16],110%
same,cell viability,[17],115%
same,cell viability,[18],113%
same,cell viability,[19],120%
same,cell viability,[20],104%
same,cell viability,[21],112%
same,cell viability,[22],113%
same,cell viability,[23],96.3%
same,cell viability,[24],107%
same,cell viability,[25],107%
same,cell viability,[26],110%
same,cell viability,[27],123%
same,cell viability,[28],106%
same,cell viability,[29],111%
same,cell viability,[30],116%
same,cell viability,[31],108%
same,cell viability,[32],121%
same,cell viability,[33],110%
O=C(Nc1ccc(OC(F)(F)F)cc1)c1sccc1NCc1ccnc2ccccc12,cell viability,[1],118%
same,cell viability,[2],109%
same,cell viability,[3],127%
same,cell viability,[4],123%
same,cell viability,[5],109%
same,cell viability,[6],110%
same,cell viability,[7],80.1%
same,cell viability,[8],43.1%
same,cell viability,[9],33.4%
same,cell viability,[10],33.8%
same,cell viability,[11],41.4%
same,cell viability,[12],118%
same,cell viability,[13],101%
same,cell viability,[14],117%
same,cell viability,[15],121%
same,cell viability,[16],112%
same,cell viability,[17],105%
same,cell viability,[18],108%
same,cell viability,[19],96%
same,cell viability,[20],52.8%
same,cell viability,[21],22.6%
same,cell viability,[22],25.3%
same,cell viability,[23],105%
same,cell viability,[24],106%
same,cell viability,[25],113%
same,cell viability,[26],117%
same,cell viability,[27],107%
same,cell viability,[28],109%
same,cell viability,[29],116%
same,cell viability,[30],91.6%
same,cell viability,[31],57%
same,cell viability,[32],28%
same,cell viability,[33],36.1%
OC[C@H]1O[C@@H](Oc2ccc(O)cc2)[C@H](O)[C@@H](O)[C@@H]1O,cell viability,[1],88.1%
same,cell viability,[2],102%
same,cell viability,[3],95.4%
same,cell viability,[4],105%
same,cell viability,[5],95.9%
same,cell viability,[6],102%
same,cell viability,[7],79.7%
same,cell viability,[8],101%
same,cell viability,[9],86.5%
same,cell viability,[10],114%
same,cell viability,[11],104%
same,cell viability,[12],81.4%
same,cell viability,[13],93.9%
same,cell viability,[14],87%
same,cell viability,[15],83.1%
same,cell viability,[16],86%
same,cell viability,[17],87.7%
same,cell viability,[18],98.5%
same,cell viability,[19],91.5%
same,cell viability,[20],92.5%
same,cell viability,[21],90.8%
same,cell viability,[22],88.9%
same,cell viability,[23],65.2%
same,cell viability,[24],74.8%
same,cell viability,[25],85.4%
same,cell viability,[26],82.1%
same,cell viability,[27],82.3%
same,cell viability,[28],79.6%
same,cell viability,[29],89.1%
same,cell viability,[30],94.5%
same,cell viability,[31],86.1%
same,cell viability,[32],95.5%
same,cell viability,[33],93.4%
O=C/1\C=C(/OC(=C1)/C2=C3SC4=C(SC3=CC=C2)C=CC=C4)N5CCOCC5,cell viability,[1],93.3%
same,cell viability,[2],94.6%
same,cell viability,[3],103%
same,cell viability,[4],32.3%
same,cell viability,[5],112%
same,cell viability,[6],103%
same,cell viability,[7],122%
same,cell viability,[8],105%
same,cell viability,[9],84%
same,cell viability,[10],90.1%
same,cell viability,[11],82%
same,cell viability,[12],79.8%
same,cell viability,[13],93.2%
same,cell viability,[14],91.1%
same,cell viability,[15],19.4%
same,cell viability,[16],92%
same,cell viability,[17],91.9%
same,cell viability,[18],94.7%
same,cell viability,[19],96.7%
same,cell viability,[20],89.1%
same,cell viability,[21],89.3%
same,cell viability,[22],90.3%
same,cell viability,[23],81.3%
same,cell viability,[24],93.6%
same,cell viability,[25],98.1%
same,cell viability,[26],33.1%
same,cell viability,[27],88.2%
same,cell viability,[28],104%
same,cell viability,[29],107%
same,cell viability,[30],99.3%
same,cell viability,[31],83.7%
same,cell viability,[32],81.2%
same,cell viability,[33],86.2%
